Data published in patent US20240400544A1, “N-(HYDROXYALKYL (HETERO)ARYL) TETRAHYDROFURAN CARBOXAMIDE ANALOGS AS MODULATORS OF SODIUM CHANNELS” (VERTEX PHARMACEUTICALS INCORPORATED, priority 2021, published 2024).

target: human NaV 1.8 (Homo sapiens, UniProt Q9Y5Y9); experiment: E-VIPR Assay Detecting and Measuring NaV Inhibition Properties; assay type: cell-based; conditions: HEK cells expressing a truncated form of human NaV 1.8 with full channel activity; electrical stimulation, membrane potential FRET dyes; read-out: measured IC50 value in the E-VIPR Assay
Description: E-VIPR Assay Detecting and Measuring NaV Inhibition Properties
Sodium ion channels are voltage-dependent proteins that can be activated by inducing membrane voltage changes by applying electric fields. The electrical stimulation instrument and methods of use, referred to as E-VIPR, are described in International Publication No. WO 2002/008748 A3 and C.-J. Huang et al. Characterization of voltage-gated sodium channel blockers by electrical stimulation and fluorescence detection of membrane potential, 24 Nature Biotech. 439-46 (2006), both of which are incorporated by reference in their entirety. The instrument comprises a microtiter plate handler, an optical system for exciting the coumarin dye while simultaneously recording the coumarin and oxonol emissions, a waveform generator, a current- or voltage-controlled amplifier, and parallel electrode pairs that are inserted into assay plate wells. Under integrated computer control, this instrument passes user-programmed electrical stimulus protocols to cells within the wells of the microtiter plate.
16-20 hours prior to running the assay on E-VIPR, HEK cells expressing a truncated form of human NaV 1.8 with full channel activity were seeded into microtiter 384-well plates, pre-coated with matrigel, at a density of 25,000 cells per well. 2.5-5% KIR2.1 Bacmam virus was added to the final cell suspension before seeding into cell plates. HEK cells were grown in Dulbecco's Modified Eagle's Medium (DMEM) supplemented with 10% FBS (Fetal Bovine Serum, qualified; Sigma #F4135), 1% NEAA (Non-Essential Amino Acids, Gibco #11140), 1% HEPES (Gibco #15630), 1% Pen-Strep (Penicillin-Streptomycin; Gibco #15140) and 5 μg/ml Blasticidin (Gibco #R210-01). Cells were expanded in vented cap cell culture flasks, with 90-95% humidity and 5% CO2.
2.5-5% KIR 2.1 Bacmam virus (produced in-house), prepared as described in Section 3.3 of J. A. Fornwald et al., Gene Expression in Mammalian Cells Using BacMam, a Modified Baculovirus System, 1350 Methods in Molecular Biology 95-116 (2016), the entire contents of which are incorporated by reference. The concentration used can be dependent on viral titer of each batch.
5 mM DiSBAC6(3), a voltage sensitive oxonol acceptor (CAS number 169211-44-3; 5-[3-(1,3-dihexylhexahydro-4,6-dioxo-2-thioxo-5-pyrimidinyl)-2-propen-1-ylidene]-1,3-dihexyldihydro-2-thioxo-4,6(1H,5H)-pyrimidinedione), in dry DMSO. The preparation of DiSBAC6(3) is analogous to that of DiSBAC4(3) as described in Voltage Sensing by Fluorescence Resonance Energy Transfer in Single Cells, Gonzalez, J. E. and Tsien, R. Y. (1995) Biophys. J. 69, 1272-1280.
5 mM CC2-DMPE, a commercially available membrane-bound coumarin phospholipid FRET donor (ThermoFisher Scientific catalog number K1017, CAS number 393782-57-5; tetradecanoic acid, 1,1′-[(1R)-1-[8-(6-chloro-7-hydroxy-2-oxo-2H-1-benzopyran-3-yl)-3-hydroxy-3-oxido-8-oxo-2,4-dioxa-7-aza-3-phosphaoct-1-yl]-1,2-ethanediyl] ester) was prepared in dry DMSO. See also, Improved indicators of cell membrane potential that use fluorescence resonance energy transfer, Gonzalez, J. E. and Tsien, R. Y. (1997) Chem. Biol. 4, 269-277.
Voltage Assay Background Suppression Compound (VABSC-1) is prepared in H2O (89-363 mM, range used to maintain solubility)
Human Serum (HS, Millipore #S1P1-01KL, or Sigma SLBR5469V and SLBR5470V as a 50%/50% mixture, for 25% assay final concentration)
• Sodium Chloride 160 mM (9.35 g/L), Potassium Chloride, 4.5 mM (0.335 g/L), Glucose • 10 mM (1.8 g/L), Magnesium Chloride (Anhydrous) 1 mM (0.095 g/L), Calcium • Chloride 2 mM (0.222 g/L), HEPES 10 mM (2.38 g/L) in water.
• Sodium Chloride 96 mM (5.61 g/L), Potassium Chloride 4.5 mM (0.335 g/L), • Tetramethylammonium (TMA)-Cl 64 mM (7.01 g/L), Glucose 10 mM (1.8 g/L), • Magnesium Chloride (Anhydrous) 1 mM (0.095 g/L), Calcium Chloride 2 mM (0.222 • g/L) HEPES 10 mM (2.38 g/L) in water. […]

Chain of human NaV 1.8 (Q9Y5Y9 126-1722 limits assumed): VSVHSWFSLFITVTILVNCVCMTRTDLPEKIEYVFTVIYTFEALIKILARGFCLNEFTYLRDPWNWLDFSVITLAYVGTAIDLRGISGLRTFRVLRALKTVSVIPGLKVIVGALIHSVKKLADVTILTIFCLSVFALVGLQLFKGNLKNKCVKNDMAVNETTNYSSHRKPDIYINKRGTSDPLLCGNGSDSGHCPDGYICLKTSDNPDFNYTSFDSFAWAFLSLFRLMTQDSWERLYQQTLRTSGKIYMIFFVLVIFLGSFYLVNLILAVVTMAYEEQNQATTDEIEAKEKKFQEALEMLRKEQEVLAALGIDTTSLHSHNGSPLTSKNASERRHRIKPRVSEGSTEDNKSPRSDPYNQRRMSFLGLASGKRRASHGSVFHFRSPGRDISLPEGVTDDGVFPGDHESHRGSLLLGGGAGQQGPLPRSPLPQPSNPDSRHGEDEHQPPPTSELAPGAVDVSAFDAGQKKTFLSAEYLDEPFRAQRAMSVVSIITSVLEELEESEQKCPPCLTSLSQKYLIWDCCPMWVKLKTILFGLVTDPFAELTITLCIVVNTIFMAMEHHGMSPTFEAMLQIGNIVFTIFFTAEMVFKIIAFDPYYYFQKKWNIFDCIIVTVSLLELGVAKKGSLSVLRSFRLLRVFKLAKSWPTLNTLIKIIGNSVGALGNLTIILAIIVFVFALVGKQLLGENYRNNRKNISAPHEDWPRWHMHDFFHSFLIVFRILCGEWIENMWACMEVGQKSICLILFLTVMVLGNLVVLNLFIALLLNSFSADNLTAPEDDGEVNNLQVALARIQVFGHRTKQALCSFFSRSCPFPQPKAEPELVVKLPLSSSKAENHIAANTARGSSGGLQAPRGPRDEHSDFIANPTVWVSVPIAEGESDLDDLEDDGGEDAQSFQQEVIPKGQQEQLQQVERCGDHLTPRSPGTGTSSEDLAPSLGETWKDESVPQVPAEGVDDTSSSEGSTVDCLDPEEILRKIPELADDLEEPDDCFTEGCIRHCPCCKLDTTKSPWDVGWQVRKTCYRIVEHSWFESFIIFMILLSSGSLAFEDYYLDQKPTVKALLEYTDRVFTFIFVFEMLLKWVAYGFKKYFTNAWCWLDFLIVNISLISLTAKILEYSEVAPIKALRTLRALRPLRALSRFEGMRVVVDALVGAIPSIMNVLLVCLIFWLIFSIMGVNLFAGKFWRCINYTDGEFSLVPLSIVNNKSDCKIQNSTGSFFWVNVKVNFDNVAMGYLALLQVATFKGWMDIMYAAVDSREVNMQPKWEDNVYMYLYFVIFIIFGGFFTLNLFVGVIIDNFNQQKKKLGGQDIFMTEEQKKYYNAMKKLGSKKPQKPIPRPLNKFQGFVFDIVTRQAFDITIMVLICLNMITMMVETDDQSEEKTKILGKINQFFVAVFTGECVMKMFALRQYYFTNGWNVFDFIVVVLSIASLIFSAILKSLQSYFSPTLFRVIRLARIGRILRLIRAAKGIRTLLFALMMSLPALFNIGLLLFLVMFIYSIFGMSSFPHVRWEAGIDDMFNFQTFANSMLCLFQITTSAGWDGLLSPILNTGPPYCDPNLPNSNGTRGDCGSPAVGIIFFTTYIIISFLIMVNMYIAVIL

| IC50 | SMILES |
| --- | --- |
| 10 to 100 nM | C[C@H]1[C@@H](c2ccc(F)c(F)c2OCC2COC2)[C@H](C(=O)Nc2ccc(CO)nc2)O[C@@]1(C)C(F)(F)F [Compound 24, (2R,3S,4S,5R)-3-(3,4-difluoro-2-(oxetan-3-ylmethoxy)phenyl)-N-(6-(hydroxymethyl)pyridin-3-yl)-4,5-dimethyl-5-(trifluoromethyl)tetrahydrofuran-2-carboxamide] |
| 10 to 100 nM | C[C@H]1[C@@H](c2ccc(F)c(F)c2OCCN2CCOCC2)[C@H](C(=O)Nc2ccc(CO)nc2)O[C@@]1(C)C(F)(F)F [Compound 25, (2R,3S,4S,5R)-3-(3,4-difluoro-2-(2-morpholinoethoxy)phenyl)-N-(6-(hydroxymethyl)pyridin-3-yl)-4,5-dimethyl-5-(trifluoromethyl)tetrahydrofuran-2-carboxamide] |
| 100 to 1000 nM | C[C@H]1[C@@H](c2ccc(F)c(F)c2OCCN2C[C@H]3COC[C@H]3C2)[C@H](C(=O)Nc2cnc(CO)nc2)O[C@@]1(C)C(F)(F)F [Compound 26, (2R,3S,4S,5R)-3-(3,4-difluoro-2-(2-((3aR,6aS)-tetrahydro-1H-furo[3,4-c]pyrrol-5(3H)-yl)ethoxy)phenyl)-N-(2-(hydroxymethyl)pyrimidin-5-yl)-4,5-dimethyl-5-(trifluoromethyl)tetrahydrofuran-2-carboxamide] |
